Reference: US12043632B2, “6-heteroaryloxy benzimidazoles and azabenzimidazoles as JAK2 inhibitors” (Ajax Therapeutics, Inc., priority 2020, dated 2024)
pKd: −log10 of the molar value.

Target: T1, JAK2 (JH1domain-catalytic, Y1007F,Y1008F) kinase (Homo sapiens, UniProt O60674, Y1007F/Y1008F)
T1 construct: JAK2 (JH1domain-catalytic, Y1007F,Y1008F) kinase was expressed as N-terminal fusion; made in house; host or cells: transiently transfected HEK293 cells
Test: JAK2 JH1 Domain Binding Assay
Settings: qPCR readout

T1 sequence (O60674 849-1124 Y1007F/Y1008F limits assumed): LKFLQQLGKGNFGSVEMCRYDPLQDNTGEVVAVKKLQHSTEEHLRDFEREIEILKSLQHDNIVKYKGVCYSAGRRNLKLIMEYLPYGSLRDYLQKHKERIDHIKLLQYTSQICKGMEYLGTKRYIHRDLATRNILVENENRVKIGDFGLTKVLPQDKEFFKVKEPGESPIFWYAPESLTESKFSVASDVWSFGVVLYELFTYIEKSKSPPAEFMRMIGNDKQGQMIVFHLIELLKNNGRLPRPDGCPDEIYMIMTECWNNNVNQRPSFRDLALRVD

pKd | Structure (SMILES)
7.30 to 8.00 | COc1c(Oc2cnn3ccncc23)cnc2nc(Nc3cc(C(C)(C)C)n([C@H]4CCN(CCF)C4)n3)n(C)c12 [Example I-50, (S)—N-(5-(tert-butyl)-1-(1-(2-fluoroethyl)pyrrolidin-3-yl)-1H-pyrazol-3-yl)-7-methoxy-1-methyl-6-(pyrazolo[1,5-a]pyrazin-3-yloxy)-1H-imidazo[4,5-b]pyridin-2-amine]
7.30 to 8.00 | COCCN1CC[C@H](n2nc(Nc3nc4ncc(Oc5cnn6ccncc56)c(C(F)F)c4n3C)cc2C(C)(C)C)C1 [Example I-51, (S)—N-(5-(tert-butyl)-1-(1-(2-methoxyethyl)pyrrolidin-3-yl)-1H-pyrazol-3-yl)-7-(difluoromethyl)-1-methyl-6-(pyrazolo[1,5-a]pyrazin-3-yloxy)-1H-imidazo[4,5-b]pyridin-2-amine]
> 8.00 | Cn1c(Nc2cc(C(C)(C)C)n(C3CC4(COC4)C3)n2)nc2ncc(Oc3cnn4ccncc34)c(C(F)F)c21 [Example I-53, N-(5-(tert-butyl)-1-(2-oxaspiro[3.3]heptan-6-yl)-1H-pyrazol-3-yl)-7-(difluoromethyl)-1-methyl-6-(pyrazolo[1,5-a]pyrazin-3-yloxy)-1H-imidazo[4,5-b]pyridin-2-amine]
7.30 to 8.00 | Cn1c(Nc2cc(C(C)(C)C)n(CC#N)n2)nc2ncc(Oc3cnn4ccncc34)c(Cl)c21 [Example I-54, 2-(5-(tert-butyl)-3-((7-chloro-1-methyl-6-(pyrazolo[1,5-a]pyrazin-3-yloxy)-1H-imidazo[4,5-b]pyridin-2-yl)amino)-1H-pyrazol-1-yl)acetonitrile]
> 8.00 | Cn1c(Nc2cc(C(C)(C)C)n([C@H]3C[C@H](O)C3)n2)nc2ncc(Oc3cnn4ccncc34)c(Cl)c21 [Example I-55, trans-3-(5-(tert-butyl)-3-((7-chloro-1-methyl-6-(pyrazolo[1,5-a]pyrazin-3-yloxy)-1H-imidazo[4,5-b]pyridin-2-yl)amino)-1H-pyrazol-1-yl)cyclobutan-1-ol]
> 8.00 | Cn1cc(C2CC2)cc(Nc2nc3ncc(Oc4cnn5ccncc45)c(Cl)c3n2C)c1=O [Example I-57, 3-((7-chloro-1-methyl-6-(pyrazolo[1,5-a]pyrazin-3-yloxy)-1H-imidazo[4,5-b]pyridin-2-yl)amino)-5-cyclopropyl-1-methylpyridin-2(1H)-one]
> 8.00 | COCCn1cc(C2CC2)cc(Nc2nc3ncc(Oc4cnn5ccncc45)c(OC)c3n2C)c1=O [Example I-58, 5-cyclopropyl-3-((7-methoxy-1-methyl-6-(pyrazolo[1,5-a]pyrazin-3-yloxy)-1H-imidazo[4,5-b]pyridin-2-yl)amino)-1-(2-methoxyethyl)pyridin-2(1H)-one]
> 8.00 | Cn1cc(C2CC2)cc(Nc2nc3ncc(Oc4cnn5ccncc45)c(C(F)F)c3n2C)c1=O [Example I-59, 5-cyclopropyl-3-((7-(difluoromethyl)-1-methyl-6-(pyrazolo[1,5-a]pyrazin-3-yloxy)-1H-imidazo[4,5-b]pyridin-2-yl)amino)-1-methylpyridin-2(1H)-one]
> 8.00 | Cn1c(Nc2cc(C(C)(C)C)n(CCC#N)n2)nc2ncc(Oc3cnn4ccncc34)c(Cl)c21 [Example I-61, 3-(5-(tert-butyl)-3-((7-chloro-1-methyl-6-(pyrazolo[1,5-a]pyrazin-3-yloxy)-1H-imidazo[4,5-b]pyridin-2-yl)amino)-1H-pyrazol-1-yl)propanenitrile]
7.30 to 8.00 | COc1c(Oc2cnn3ccncc23)cnc2nc(Nc3cc(C(C)(C)C)n([C@@H]4CCN(CCF)C4)n3)n(C)c12 [Example I-62, (R)—N-(5-(tert-butyl)-1-(1-(2-fluoroethyl)pyrrolidin-3-yl)-1H-pyrazol-3-yl)-7-methoxy-1-methyl-6-(pyrazolo[1,5-a]pyrazin-3-yloxy)-1H-imidazo[4,5-b]pyridin-2-amine]
7.30 to 8.00 | Cn1c(Nc2cc(C(C)(C)C)n(CC#N)n2)nc2ncc(Oc3cnn4ccncc34)c(C(F)F)c21 [Example I-63, 2-(5-(tert-butyl)-3-((7-(difluoromethyl)-1-methyl-6-(pyrazolo[1,5-a]pyrazin-3-yloxy)-1H-imidazo[4,5-b]pyridin-2-yl)amino)-1H-pyrazol-1-yl)acetonitrile]
